Data from article PMC4364393 (Journal of medicinal chemistry, 2015).
Converted amounts (≈) assume the structure as drawn. Read-outs that look alike come from different tables or passages of the source.

Assays:
[1] = tested on: E. faecalis (Van A) MMX 486; assay: MIC, E. faecalis; type: cell-based; conditions: Enterococcus faecalis, read-out: MIC, E. faecalis (Van A) MMX 486
[2] = tested on: E. faecalis (Van B) ATCC 51299; assay: MIC, E. faecalis; type: cell-based, Enterococcus faecalis
[3] = tested on: E. faecalis (Van S) ATCC 29212; assay: MIC, E. faecalis; type: cell-based; conditions: Enterococcus faecalis, ATCC29212, read-out: MIC, E. faecalis (Van S) ATCC 29212
[4] = tested on: Van A phenotype VRE strain; conditions: cited from earlier work

CC(=O)NC[C@H]1CN(c2ccc(N3CCOCC3)c(F)c2)C(=O)O1 [Linezolid, linezolid] showed an MIC [1] of 2 µg/mL (≈ 5.93 µM), an MIC ([2]; Enterococcus faecalis, ATCC51299, read-out: MIC, E. faecalis (Van B) ATCC 51299) of 2 µg/mL (≈ 5.93 µM) and an MIC [3] of 2 µg/mL (≈ 5.93 µM).
For CN[C@H](CC(C)C)C(=O)N[C@H]1C(=O)N[C@@H](CC(N)=O)C(=O)N[C@H]2C(=O)N[C@H]3C(=O)N[C@H](C(=O)N[C@H](C(=O)O)c4cc(O)cc(O)c4-c4cc3ccc4O)[C@H](O)c3ccc(c(Cl)c3)Oc3cc2cc(c3O[C@@H]2O[C@H](CO)[C@@H](O)[C@H](O)[C@H]2O[C@H]2C[C@](C)(N)[C@H](O)[C@H](C)O2)Oc2ccc(cc2Cl)[C@H]1O [Vancomycin, vancomycin], the “MIC against Van A phenotype VRE strain” value ([4]; based on a literature report) is given as 512 µg/mL (≈ 353 µM).
For “G4-decanoyl vancomycin derivative [Compound 9b]”, the “times more active against a VRE strain (Van B phenotype)” value ([2]; fold improvement of MIC, compared with vancomycin) was 64 times.
In the case of teicoplanin A2-2, the “MIC against Van A phenotype VRE strain” value [4] is given as 128 µg/mL.
